# Experimental data: patent publication EP4389749A1, “SUBSTITUTED 3,7-DIHYDRO-1H-PURINE-2,6-DIONES AND USE THEREOF” (invIOs GmbH, priority 2022, dated 2024)
# Legend:
# [1] = test system: CD8+ T-cells; experiment: Immunostimulation assay with anti-CD3/28 stimulated T-cells, CD69 expression by flow cytometry; format: cell-based, human; conditions: T-cell; purified human CD4+ and CD8+ T-cells, 1 µg/ml anti-CD3, 1 µg/ml anti-CD28, 16 hours, surface FACS; read-out: EC50 CD8+
# Experimental: (§1) Selection of potent compounds based on structure activity relation (SAR) using human, anti-CD3/28 stimulated T-cells. Enhanced activation of stimulated T-cells is measured by CD69 expression by flowcytometry.
# (§2) White blood cell enriched buffy coats were ordered from the Austrian red cross, diluted with PBS to a total volume of 480 ml, 30 ml transferred to 50ml falcons and 11 ml lymphoprep added. Cell suspensions were centrifuged for 20 min at 2200 rpm and the PBMC containing layer transferred, three times washed with PBS and counted.
# (§3) 10^7 PBMCs were magnetically labeled with CD4 and CD8 microbeads according to manufacturer's instructions and separated using autoMACS device. For dose response experiments with purified CD4+CD8+ T-cells 80000 cells were seeded per 96-well flat bottom cell culture dish.
# (§4) 10 mM compounds of the invention stocks were further diluted using DMSO and equal amounts transferred to T-cell containing 96-wells. Final concentrations tested were: 30 µM, 10 µM, 3 µM, 1 µM, 0.3 µM, 0.1 µM, 0.03 µM, 0.01 µM, 0.003 µM and 0.001 µM.
# (§5) For the stimulation assays 80.000 purified CD4+ and CD8+ T-cells were seeded per 96-well and incubated with 1 µg/ml anti-CD3, 1 µg/ml anti-CD28 and compounds of the invention ranging from 0.001 µM to 30 µM. DMSO only wells served as control to determine minimal T-cell activation upon stimulation and CD3/28 coupled Dynabeads were used to determine the maximal activation of T-cells. Cells were cultured for 16 hours in a humidified incubator at 37 °C and 5 % CO2.
# (§6) T-cells were stained for surface antigens (anti-CD4 and anti-CD8) and cell activation markers (anti-CD25 and anti-CD69). Additionally, a fixable viability dye was used to stain viable cells. Staining was performed for 15 minutes and cells analyzed using a Fortessa flow cytometer and FlowJo Software. EC50s were calculated using GraphPad Prism® and a variable slope model (agonist vs. response - variable slope).
# [2] = test system: CD4+ T-cells; experiment: as above; format: cell-based, human; conditions: T-cell; purified human CD4+ and CD8+ T-cells, 1 µg/ml anti-CD3, 1 µg/ml anti-CD28, 16 hours, surface FACS; read-out: EC50 CD4+
# Experimental: as §1, §2, §3, §4, §5, §6
Structure (SMILES),EC50 [1],EC50 [2]
"Cc1ccc(COc2ccc(-c3nc4c(c(=O)[nH]c(=O)n4CC(O)C(F)(F)F)n3C)cc2F)cc1 (centres unmarked) [Compound 102, 8-(3-fluoro-4-((4-methylbenzyl)oxy)phenyl)-7-methyl-3-(3,3,3-trifluoro-2-hydroxypropyl)-3,7-dihydro-1H-purine-2,6-dione]",100 to 500 nM,< 100 nM
"COc1cc(-c2nc3c(c(=O)[nH]c(=O)n3CC(C)CO)n2C)ccc1OCc1ccc(C(F)F)cc1 (centres unmarked) [Compound 74, 8-(4-((4-(difluoromethyl)benzyl)oxy)-3-methoxyphenyl)-3-(3-hydroxy-2-methylpropyl)-7-methyl-3,7-dihydro-1H-purine-2,6-dione]",100 to 500 nM,100 to 500 nM
"COCC(O)Cn1c(=O)[nH]c(=O)c2c1nc(-c1ccc(OCc3ccccc3)c(OC)c1)n2C (centres unmarked) [Compound 54, 8-(4-(benzyloxy)-3-methoxyphenyl)-3-(2-hydroxy-3-methoxypropyl)-7-methyl-3,7-dihydro-1H-purine-2,6-dione]",1000 to 5000 nM,1000 to 5000 nM
"COc1cc(-c2nc3c(c(=O)[nH]c(=O)n3CC(C)O)n2C)ccc1OCc1ccc(OC(F)F)cc1 (centres unmarked) [Compound 85, 8-(4-((4-(difluoromethoxy)benzyl)oxy)-3-methoxyphenyl)-3-(2-hydroxypropyl)-7-methyl-3,7-dihydro-1H-purine-2,6-dione]",100 to 500 nM,100 to 500 nM
"COc1cc(COc2ccc(-c3nc4c(c(=O)[nH]c(=O)n4CC(C)O)n3C)cc2OC)ccc1F (centres unmarked) [Compound 127, 8-(4-((4-fluoro-3-methoxybenzyl)oxy)-3-methoxyphenyl)-3-(2-hydroxypropyl)-7-methyl-3,7-dihydro-1H-purine-2,6-dione]",500 to 1000 nM,500 to 1000 nM
"Cc1ccc(COc2ccc(-c3nc4c(c(=O)[nH]c(=O)n4CC(C)O)n3C)cc2C(F)(F)F)cc1 (centres unmarked) [Compound 123, 3-(2-hydroxypropyl)-7-methyl-8-(4-((4-methylbenzyl)oxy)-3-(trifluoromethyl)phenyl)-3,7-dihydro-1H-purine-2,6-dione]",< 100 nM,< 100 nM
"CC(O)Cn1c(=O)[nH]c(=O)c2c1nc(-c1ccc(OCc3ccc(F)cc3)c(Cl)c1)n2C (centres unmarked) [Compound 91, 8-(3-chloro-4-((4-fluorobenzyl)oxy)phenyl)-3-(2-hydroxypropyl)-7-methyl-3,7-dihydro-1H-purine-2,6-dione]",100 to 500 nM,100 to 500 nM
"COc1cc(-c2nc3c(c(=O)[nH]c(=O)n3CC(C)O)n2C)ccc1OCc1cccc2ncccc12 (centres unmarked) [Compound 113, 3-(2-hydroxypropyl)-8-(3-methoxy-4-(quinolin-5-ylmethoxy)phenyl)-7-methyl-3,7-dihydro-1H-purine-2,6-dione]",1000 to 5000 nM,500 to 1000 nM
"COc1cc(-c2nc3c(c(=O)[nH]c(=O)n3CC(O)C(F)(F)F)n2C)ccc1OCc1ccc(C(F)F)cc1 (centres unmarked) [Compound 75, 8-(4-((4-(difluoromethyl)benzyl)oxy)-3-methoxyphenyl)-7-methyl-3-(3,3,3-trifluoro-2-hydroxypropyl)-3,7-dihydro-1H-purine-2,6-dione]",100 to 500 nM,100 to 500 nM
"CC(O)Cn1c(=O)[nH]c(=O)c2c1nc(-c1ccc(Oc3ccc(OC(F)(F)F)cc3)c(Cl)c1)n2C (centres unmarked) [Compound 179, 8-(3-chloro-4-(4-(trifluoromethoxy)phenoxy)phenyl)-3-(2-hydroxypropyl)-7-methyl-3,7-dihydro-1H-purine-2,6-dione]",500 to 1000 nM,> 5000 nM
"CC(O)Cn1c(=O)[nH]c(=O)c2c1nc(-c1ccc(Oc3ccc(F)c(C(F)(F)F)c3)cc1)n2C (centres unmarked) [Compound 195, 8-(4-(4-fluoro-3-(trifluoromethyl)phenoxy)phenyl)-3-(2-hydroxypropyl)-7-methyl-3,7-dihydro-1H-purine-2,6-dione]",1000 to 5000 nM,1000 to 5000 nM
"Cn1c(-c2ccc(Oc3ccc(Cl)cc3)cc2)nc2c1c(=O)[nH]c(=O)n2CC(O)C(F)(F)F (centres unmarked) [Compound 164, 8-(4-(4-chlorophenoxy)phenyl)-7-methyl-3-(3,3,3-trifluoro-2-hydroxypropyl)-3,7-dihydro-1H-purine-2,6-dione]",100 to 500 nM,100 to 500 nM
"COc1cc(-c2nc3c(c(=O)[nH]c(=O)n3CC(O)C(F)F)n2C)ccc1OCc1ccc(OC(F)F)cc1 (centres unmarked) [Compound 83, 3-(3,3-difluoro-2-hydroxypropyl)-8-(4-((4-(difluoromethoxy)benzyl)oxy)-3-methoxyphenyl)-7-methyl-3,7-dihydro-1H-purine-2,6-dione]",< 100 nM,< 100 nM
"CC(O)Cn1c(=O)[nH]c(=O)c2c1nc(-c1ccc(Oc3ccc(OC(F)(F)F)cc3Cl)cc1)n2C (centres unmarked) [Compound 192, 8-(4-(2-chloro-4-(trifluoromethoxy)phenoxy)phenyl)-3-(2-hydroxypropyl)-7-methyl-3,7-dihydro-1H-purine-2,6-dione]",1000 to 5000 nM,1000 to 5000 nM
"CC(CO)Cn1c(=O)[nH]c(=O)c2c1nc(-c1ccc(OCc3ccccc3)c(OC(F)(F)F)c1)n2C (centres unmarked) [Compound 118, 8-(4-(benzyloxy)-3-(trifluoromethoxy)phenyl)-3-(3-hydroxy-2-methylpropyl)-7-methyl-3,7-dihydro-1H-purine-2,6-dione]",100 to 500 nM,< 100 nM
"COc1cc(-c2nc3c(c(=O)[nH]c(=O)n3CC(O)C(F)F)n2C)ccc1OCc1ccccc1 (centres unmarked) [Compound 68, 8-(4-(benzyloxy)-3-methoxyphenyl)-3-(3,3-difluoro-2-hydroxypropyl)-7-methyl-3,7-dihydro-1H-purine-2,6-dione]",100 to 500 nM,100 to 500 nM
"Cn1c(-c2ccc(OCc3ccc(C(F)F)cc3)c(F)c2)nc2c1c(=O)[nH]c(=O)n2CC(O)C(F)F (centres unmarked) [Compound 62, 3-(3,3-difluoro-2-hydroxypropyl)-8-(4-((4-(difluoromethyl)benzyl)oxy)-3-fluorophenyl)-7-methyl-3,7-dihydro-1H-purine-2,6-dione]",100 to 500 nM,500 to 1000 nM
"COc1cc(-c2nc3c(c(=O)[nH]c(=O)n3CC(C)O)n2C)ccc1OCc1ccc(C(F)(F)F)cc1 (centres unmarked) [Compound 89, 3-(2-hydroxypropyl)-8-(3-methoxy-4-((4-(trifluoromethyl)benzyl)oxy)phenyl)-7-methyl-3,7-dihydro-1H-purine-2,6-dione]",100 to 500 nM,500 to 1000 nM
"CC(O)Cn1c(=O)[nH]c(=O)c2c1nc(-c1ccc(Oc3ccc(OC(F)(F)F)cc3)c(F)c1)n2C (centres unmarked) [Compound 188, 8-(3-fluoro-4-(4-(trifluoromethoxy)phenoxy)phenyl)-3-(2-hydroxypropyl)-7-methyl-3,7-dihydro-1H-purine-2,6-dione]",1000 to 5000 nM,100 to 500 nM
"COc1cc(-c2nc3c(c(=O)[nH]c(=O)n3CC(CO)C(F)F)n2C)ccc1OCc1ccc(C(F)F)cc1 (centres unmarked) [Compound 66, 3-(3,3-difluoro-2-(hydroxymethyl)propyl)-8-(4-((4-(difluoromethyl)benzyl)oxy)-3-methoxyphenyl)-7-methyl-3,7-dihydro-1H-purine-2,6-dione]",< 100 nM,< 100 nM
"Cn1c(-c2ccc(Oc3ccc(OC(F)(F)F)cc3F)cc2)nc2c1c(=O)[nH]c(=O)n2CC(O)C(F)(F)F (centres unmarked) [Compound 161, 8-(4-(2-fluoro-4-(trifluoromethoxy)phenoxy)phenyl)-7-methyl-3-(3,3,3-trifluoro-2-hydroxypropyl)-3,7-dihydro-1H-purine-2,6-dione]",100 to 500 nM,100 to 500 nM
"Cc1ccc(COc2ccc(-c3nc4c(c(=O)[nH]c(=O)n4CC(C)O)n3C)cc2OC(F)(F)F)cc1 (centres unmarked) [Compound 122, 3-(2-hydroxypropyl)-7-methyl-8-(4-((4-methylbenzyl)oxy)-3-(trifluoromethoxy)phenyl)-3,7-dihydro-1H-purine-2,6-dione]",< 100 nM,< 100 nM
"COc1cc(-c2nc3c(c(=O)[nH]c(=O)n3CC(C)O)n2C)ccc1OCc1ccc(C(F)F)cc1 (centres unmarked) [Compound 86, 8-(4-((4-(difluoromethyl)benzyl)oxy)-3-methoxyphenyl)-3-(2-hydroxypropyl)-7-methyl-3,7-dihydro-1H-purine-2,6-dione]",100 to 500 nM,100 to 500 nM
"COc1ccc(COc2ccc(-c3nc4c(c(=O)[nH]c(=O)n4CC(C)O)n3C)cc2OC)cc1 (centres unmarked) [Compound 128, 3-(2-hydroxypropyl)-8-(3-methoxy-4-((4-methoxybenzyl)oxy)phenyl)-7-methyl-3,7-dihydro-1H-purine-2,6-dione]",1000 to 5000 nM,1000 to 5000 nM
"CC(O)Cn1c(=O)[nH]c(=O)c2c1nc(-c1ccc(Oc3cccc(C#N)c3)cc1)n2C (centres unmarked) [Compound 187, 3-(4-(3-(2-hydroxypropyl)-7-methyl-2,6-dioxo-2,3,6,7-tetrahydro-1H-purin-8-yl)phenoxy)benzonitrile]",1000 to 5000 nM,1000 to 5000 nM
